Where two headings read alike, the source gives them in different places.
Key:
E. coli = type: cell-based, Escherichia coli; conditions: for concentration at which inhibitory to E. coli growth: essential oil tested individually
Protocol: (§1) E. coli (Strain #139 HB101/p5G6) was grown at 24° C. for 48 hr in shake-flask cultures of Lennox broth (LB). Bacterial cells were pelleted by centrifugation in a Sorvall RC-58 centrifuge (Dupont Instruments, Wilmington, Del.) at 3000 g for 20 min, resuspended in sterile distilled water, and centrifuged again. The resulting pellets were dispersed in sterile distilled water and the cell concentration was adjusted to 10^6 CFU per ml using a standard optical density (OD) curve with the OD values of 0.1 and 1 representing viable cell counts of 1×10^6 and 1×10^9, respectively. E. coli 015:H7 and L. monocytogenes isolates were grown overnight at 37° C. in trypticase soy broth and brain heart infusion, respectively. The concentration of cells was adjusted to 10^6 CFU per ml. Botrytis cinerea and Penicillium expansum were isolated from infected fruit and maintained on potato dextrose agar (PDA). A spore suspension was obtained by flooding 2 wk cultures of B. cinerea with sterile distilled water containing 0.1% (v/v) TWEEN 80. Spore counts were determined with a hemacytometer and spore concentrations were adjusted with sterile distilled water to obtain 10^5 spores per ml.
(§2) The individual effects of various essential oils and chitosan salts, and the combined effects of essential oils and chitosan salts on the growth of the indicator organism E. coli and on the postharvest pathogen B. cinerea were determined. To measure the effects of the various treatments on spore germination of B. cinerea and growth of the E. coli, the essential oils: bay, cinnamon, savory, thyme red, allspice, birch, cloves, carvacrol, and hinokitiol (Aroma Vera, Cuber City, Calif.) and MMW chitosan in acetic, propionic, and sorbic acids were combined together with B. cinerea or E. coli to yield final concentrations of 0.1 to 0.025% for the essential oils and 0.1 to 0.0016% for the chitosan salts. For the assays, 500 spores of B. cinerea were added to each treatment in microtiter dishes or three ml of a 2X concentration of E. coli (i.e., 2×10^6 CFU/ml) were combined with three ml of a 2X concentration of treatment in a 15 ml centrifuge tube, agitated overnight, and plated after 24 hr onto LB agar plates (100 μl suspension/plate). The surfactant (Triton×100) was present at a final concentration of 0.04%. […] Four replicate tubes of each treatment were used; each experiment was repeated twice. The viable bacterial cell number was counted by surface plating serially diluted samples in triplicate on LB agar medium. Plates were incubated at 24° C. and colonies were counted at 48 hr. Botrytis spore germination was determined microscopically.

B. cinerea = assay: Effect of concentration and of synergistic combinations of essential oils and chitosan salts on spore germination of B. cinerea; type: cell-based, Botrytis cinerea
Protocol: as §1, §2

E. coli on apple disks = test system: E. coli on apple disks; parameters: species or system Escherichia coli
Protocol: as §1
Tree-ripe apples (Malus domestica Borkh) cultivar ‘Red delicious’ were hand-picked at harvest maturity at the Appalachian Fruit Research Station, Kearneysville, W. Va. Fruit were sorted to remove any with apparent injuries or infections and stored at 4° C. under refrigeration before being used in the biocontrol tests. Apple disks (10 mm) were excised from selected Red delicious apples using a cork borer. Apple disks were treated by immersion for 90 min in a 0.1% solution of various essential oils and/or their combinations with 0.1 % chitosan salts. Disks were either treated with the different combinations of natural compounds and then inoculated with E. coli by soaking apple disks in a solution of E. coli for 90 min or inoculated with E. coli and incubated at 24° C. for 24 hr. From each treatment four disks were selected randomly, individually homogenized in 5 ml of sterile water, vortexed, and dilution plated in triplicate on a LB agar medium. Plates were incubated at 24° C. and colonies were counted after 48 hr.

[1] = essential oil alone 0.025% v/v, CFU in 100 μl sample
[2] = essential oil alone 0.05% v/v, CFU in 100 μl sample
[3] = essential oil alone 0.075% v/v, CFU in 100 μl sample
[4] = essential oil alone 0.1% v/v, CFU in 100 μl sample

## CC(C)c1cccc(=O)c(O)c1 [Hinokitiol, hinokitiol]
E. coli
  Growth of E. coli (CFU), combination: 60 CFU
  concentration at which inhibitory to E. coli growth: 0.075%
E. coli; essential oil 0.075% + Chitosan acetate 0.0032%, CFU in 100 μl sample
  Growth of E. coli (CFU), combination: 102 CFU
E. coli; essential oil 0.075% + Chitosan propionate 0.0032%, CFU in 100 μl sample
  Growth of E. coli (CFU), combination: 56 CFU
E. coli; essential oil 0.075% + Water (no chitosan salt), CFU in 100 μl sample
  Growth of E. coli (CFU), synergy table: 1108 CFU
E. coli; [1]
  Growth of E. coli (CFU): TNTC
E. coli; [2]
  Growth of E. coli (CFU): TNTC
E. coli; [3]
  Growth of E. coli (CFU): 812 CFU
E. coli; [4]
  Growth of E. coli (CFU): 0 CFU
B. cinerea
  Percent Inhibition of Spore Germination, combination: 100%
B. cinerea; essential oil 0.067% + Chitosan acetate 0.02%
  Percent Inhibition of Spore Germination, combination: 100%
B. cinerea; essential oil 0.067% + Chitosan propionate 0.02%
  Percent Inhibition of Spore Germination, combination: 100%
B. cinerea; essential oil 0.067% + Water (no chitosan salt)
  Percent Inhibition of Spore Germination, synergy table: 0%

## Cc1ccc(C(C)C)cc1O [Carvacrol, carvacrol]
E. coli
  Growth of E. coli (CFU), synergy table: 1430 CFU
  concentration at which inhibitory to E. coli growth: 0.05%
E. coli; [1]
  Growth of E. coli (CFU): TNTC
E. coli; [2]
  Growth of E. coli (CFU): 0 CFU
E. coli; [3]
  Growth of E. coli (CFU): 0 CFU
E. coli; [4]
  Growth of E. coli (CFU): 0 CFU

## CC=CC=CC(=O)O [Sorbate]
E. coli on apple disks
  Eradicant Activity E. coli (CFU): TNTC
  Protectant Activity E. coli (CFU): TNTC

## CCC(=O)O [Propionate]
E. coli on apple disks; apple disks immersed in 10^6 CFU per ml E. coli for 90 min, drained, then treated (0.1% v/v)
  Eradicant Activity E. coli (CFU): TNTC
E. coli on apple disks; apple disks treated (0.1% v/v), thereafter immersed in 10^6 CFU per ml E. coli for 90 min, CFU in 100 ml sample
  Protectant Activity E. coli (CFU): TNTC

From patent publication US20030113421A1, “Synergistic combinations of natural of compounds that control decay of fruits and vegetables and reduce contamination by foodborne human pathogens” (priority 2001, published 2003)
